Measured values: article PMC8878501 (Marine Drugs, 2022)
Positions of bridges follow the written chain, without caps; N, C: chain ends. Residues, ends and D or L forms follow the SMILES beside them.

Experiments:
[1] = target: rα3β2 nAChR (Rattus norvegicus, UniProt P04757+P12390); test: cell-based; settings: 20–25 °C
[2] = target: rα6/α3β4 nAChR (Rattus norvegicus, UniProt P04757+P12392+P43143); test: cell-based; settings: 20–25 °C
[3] = target: rα3β4 nAChR (Rattus norvegicus, UniProt P04757+P12392); test: cell-based; format: cell-based
[4] = target: rα7 nAChR (Rattus norvegicus, UniProt Q05941); format: cell-based; settings: at 20 μM
[5] = target: rα4β2 nAChR (Rattus norvegicus, UniProt P09483+P12390); test: cell-based; format: cell-based
[6] = target: rα9α10 nAChR (Rattus norvegicus, UniProt P43144+Q9JLB5); test: cell-based; format: cell-based
[7] = target: hα9α10 nAChR (Homo sapiens, UniProt Q9GZZ6+Q9UGM1); test: cell-based
[8] = target: rα6/α3β2β3 nAChR (Rattus norvegicus, UniProt P04757+P12390+P12391+P43143); test: cell-based

Chain of rα4β2 nAChR (P09483 31-630 limits assumed): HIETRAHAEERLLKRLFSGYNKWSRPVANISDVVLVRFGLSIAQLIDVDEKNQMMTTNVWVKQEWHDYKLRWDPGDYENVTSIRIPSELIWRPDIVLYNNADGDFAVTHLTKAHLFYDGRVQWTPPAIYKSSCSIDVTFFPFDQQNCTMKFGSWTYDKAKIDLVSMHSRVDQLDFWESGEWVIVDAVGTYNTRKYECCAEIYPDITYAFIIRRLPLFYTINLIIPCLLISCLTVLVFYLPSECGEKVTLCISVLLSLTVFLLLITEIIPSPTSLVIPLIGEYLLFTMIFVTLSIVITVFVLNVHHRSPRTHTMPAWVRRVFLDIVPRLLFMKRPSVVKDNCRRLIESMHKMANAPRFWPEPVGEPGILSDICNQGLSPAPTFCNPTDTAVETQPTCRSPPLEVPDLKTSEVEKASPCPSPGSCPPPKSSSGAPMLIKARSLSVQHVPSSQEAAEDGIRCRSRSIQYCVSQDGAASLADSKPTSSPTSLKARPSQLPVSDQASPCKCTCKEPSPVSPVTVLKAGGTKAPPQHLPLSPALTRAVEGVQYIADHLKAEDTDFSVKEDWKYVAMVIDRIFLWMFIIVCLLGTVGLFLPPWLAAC
Chain of rα4β2 nAChR (P12390 25-500 limits assumed): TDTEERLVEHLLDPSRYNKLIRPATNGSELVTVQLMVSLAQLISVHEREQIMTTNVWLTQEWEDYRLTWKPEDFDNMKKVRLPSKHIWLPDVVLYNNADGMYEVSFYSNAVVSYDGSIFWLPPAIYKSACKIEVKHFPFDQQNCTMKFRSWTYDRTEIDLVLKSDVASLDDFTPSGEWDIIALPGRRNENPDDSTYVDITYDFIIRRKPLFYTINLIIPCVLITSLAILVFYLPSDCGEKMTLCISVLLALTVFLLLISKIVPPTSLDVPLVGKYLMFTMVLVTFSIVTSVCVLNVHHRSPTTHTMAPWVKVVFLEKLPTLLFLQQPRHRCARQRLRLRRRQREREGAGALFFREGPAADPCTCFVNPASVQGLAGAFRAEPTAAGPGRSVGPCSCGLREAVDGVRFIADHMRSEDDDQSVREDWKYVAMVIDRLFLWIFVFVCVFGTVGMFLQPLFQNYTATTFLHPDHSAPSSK
Chain of hα9α10 nAChR (Q9UGM1 26-479 limits assumed): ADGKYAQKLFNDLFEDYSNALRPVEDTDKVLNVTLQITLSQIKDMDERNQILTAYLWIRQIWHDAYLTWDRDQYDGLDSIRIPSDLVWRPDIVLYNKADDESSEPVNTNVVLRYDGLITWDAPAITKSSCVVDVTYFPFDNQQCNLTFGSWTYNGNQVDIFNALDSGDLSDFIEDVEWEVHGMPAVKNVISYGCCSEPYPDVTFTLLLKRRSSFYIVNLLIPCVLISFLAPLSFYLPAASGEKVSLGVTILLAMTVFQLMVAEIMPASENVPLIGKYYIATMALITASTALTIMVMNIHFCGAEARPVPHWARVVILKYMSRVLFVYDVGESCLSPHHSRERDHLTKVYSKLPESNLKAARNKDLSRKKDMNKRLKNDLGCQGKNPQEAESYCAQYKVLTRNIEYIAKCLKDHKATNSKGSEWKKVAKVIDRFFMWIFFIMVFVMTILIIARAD
Chain of hα9α10 nAChR (Q9GZZ6 25-450 limits assumed): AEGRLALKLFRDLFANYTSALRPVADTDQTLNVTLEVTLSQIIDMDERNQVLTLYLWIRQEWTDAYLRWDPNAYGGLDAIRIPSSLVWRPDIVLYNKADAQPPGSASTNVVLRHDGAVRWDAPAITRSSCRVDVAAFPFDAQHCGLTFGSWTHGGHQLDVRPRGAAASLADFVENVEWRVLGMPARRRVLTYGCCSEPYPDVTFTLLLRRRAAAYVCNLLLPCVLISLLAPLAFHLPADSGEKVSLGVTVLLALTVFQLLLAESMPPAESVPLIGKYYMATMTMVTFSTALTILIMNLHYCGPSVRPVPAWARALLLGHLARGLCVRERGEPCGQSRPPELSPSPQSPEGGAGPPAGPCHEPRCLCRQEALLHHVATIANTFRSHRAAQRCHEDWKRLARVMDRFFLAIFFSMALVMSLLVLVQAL
Chain of rα9α10 nAChR (P43144 26-479 limits assumed): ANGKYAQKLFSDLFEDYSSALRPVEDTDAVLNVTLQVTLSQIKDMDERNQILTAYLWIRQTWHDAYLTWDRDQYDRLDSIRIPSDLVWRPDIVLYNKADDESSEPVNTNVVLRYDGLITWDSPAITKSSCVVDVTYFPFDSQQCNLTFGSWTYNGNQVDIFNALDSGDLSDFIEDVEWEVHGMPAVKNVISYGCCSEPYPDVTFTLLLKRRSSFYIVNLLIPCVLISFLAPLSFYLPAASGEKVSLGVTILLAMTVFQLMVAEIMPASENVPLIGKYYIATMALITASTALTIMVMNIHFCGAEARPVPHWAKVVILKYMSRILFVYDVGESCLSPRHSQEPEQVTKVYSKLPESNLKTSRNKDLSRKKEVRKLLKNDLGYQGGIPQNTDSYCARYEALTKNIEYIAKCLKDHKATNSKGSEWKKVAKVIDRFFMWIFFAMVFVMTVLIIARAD
Chain of rα9α10 nAChR (Q9JLB5 25-447 limits assumed): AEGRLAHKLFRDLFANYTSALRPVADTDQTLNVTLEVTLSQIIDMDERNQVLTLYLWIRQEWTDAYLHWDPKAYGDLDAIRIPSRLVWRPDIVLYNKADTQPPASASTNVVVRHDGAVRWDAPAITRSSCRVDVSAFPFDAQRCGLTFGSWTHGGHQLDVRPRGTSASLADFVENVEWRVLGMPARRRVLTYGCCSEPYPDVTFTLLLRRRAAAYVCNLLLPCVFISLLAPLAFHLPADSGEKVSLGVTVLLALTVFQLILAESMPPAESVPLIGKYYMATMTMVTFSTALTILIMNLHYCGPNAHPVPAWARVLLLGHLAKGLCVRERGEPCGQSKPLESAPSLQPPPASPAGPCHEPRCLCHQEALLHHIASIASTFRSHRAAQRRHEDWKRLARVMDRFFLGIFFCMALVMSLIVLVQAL
Chain of rα3β4 nAChR (P04757 26-499 limits assumed): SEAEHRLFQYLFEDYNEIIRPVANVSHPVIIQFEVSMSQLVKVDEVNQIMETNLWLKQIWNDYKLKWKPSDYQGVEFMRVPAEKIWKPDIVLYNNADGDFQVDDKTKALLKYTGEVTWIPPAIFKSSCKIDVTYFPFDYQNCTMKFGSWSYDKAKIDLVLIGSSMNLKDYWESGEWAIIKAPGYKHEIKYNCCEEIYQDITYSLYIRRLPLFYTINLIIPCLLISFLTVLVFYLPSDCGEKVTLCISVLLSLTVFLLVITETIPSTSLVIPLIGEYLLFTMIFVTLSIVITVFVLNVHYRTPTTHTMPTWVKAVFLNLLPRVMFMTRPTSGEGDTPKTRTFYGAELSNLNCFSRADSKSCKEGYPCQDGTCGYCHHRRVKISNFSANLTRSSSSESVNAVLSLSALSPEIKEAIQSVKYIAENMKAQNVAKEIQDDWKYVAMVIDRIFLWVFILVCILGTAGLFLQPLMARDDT
Chain of rα3β4 nAChR (P12392 21-495 limits assumed): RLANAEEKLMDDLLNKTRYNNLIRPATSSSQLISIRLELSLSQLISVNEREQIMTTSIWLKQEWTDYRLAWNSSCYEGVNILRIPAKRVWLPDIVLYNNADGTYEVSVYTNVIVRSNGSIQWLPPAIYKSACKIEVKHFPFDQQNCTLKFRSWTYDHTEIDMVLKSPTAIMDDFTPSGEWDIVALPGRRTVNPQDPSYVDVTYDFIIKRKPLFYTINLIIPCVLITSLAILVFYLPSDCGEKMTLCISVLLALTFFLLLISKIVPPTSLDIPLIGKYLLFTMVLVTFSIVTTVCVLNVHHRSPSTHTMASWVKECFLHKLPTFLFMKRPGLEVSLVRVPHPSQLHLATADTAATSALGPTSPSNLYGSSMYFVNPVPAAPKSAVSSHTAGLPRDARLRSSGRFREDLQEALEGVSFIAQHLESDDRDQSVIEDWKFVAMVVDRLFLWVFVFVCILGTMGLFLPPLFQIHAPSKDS
Chain of rα7 nAChR (Q05941 23-502 limits assumed): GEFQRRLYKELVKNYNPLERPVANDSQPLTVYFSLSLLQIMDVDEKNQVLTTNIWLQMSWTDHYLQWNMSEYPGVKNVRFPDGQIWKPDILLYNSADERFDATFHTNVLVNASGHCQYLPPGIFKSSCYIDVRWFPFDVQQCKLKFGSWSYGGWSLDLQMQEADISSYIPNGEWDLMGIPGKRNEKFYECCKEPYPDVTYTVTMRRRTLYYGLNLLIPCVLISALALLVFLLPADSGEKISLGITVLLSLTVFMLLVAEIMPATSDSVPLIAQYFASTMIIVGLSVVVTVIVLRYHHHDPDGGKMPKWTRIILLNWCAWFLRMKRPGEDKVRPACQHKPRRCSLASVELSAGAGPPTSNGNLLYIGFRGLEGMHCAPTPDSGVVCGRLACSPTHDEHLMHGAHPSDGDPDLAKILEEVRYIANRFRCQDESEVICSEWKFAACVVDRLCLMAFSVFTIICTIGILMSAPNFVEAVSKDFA
Chain of rα3β2 nAChR (P04757 26-499 limits assumed): as the sequence (P04757 26-499 limits assumed) above
Chain of rα3β2 nAChR (P12390 25-500 limits assumed): as the sequence (P12390 25-500 limits assumed) above

CC[C@H](C)[C@@H]1NC(=O)[C@H](CCC(=O)O)NC(=O)[C@@H]2CCCN2C(=O)[C@H](Cc2c[nH]cn2)NC(=O)[C@H]([C@@H](C)O)NC(=O)[C@H](CCC(N)=O)NC(=O)[C@H](C)NC(=O)[C@@H]2CSSC[C@H](NC(=O)[C@H](CCC(=O)O)NC(=O)[C@@H](N)CC(=O)O)C(=O)N[C@@H](CSSC[C@@H](C(N)=O)NC1=O)C(=O)N[C@@H](CO)C(=O)N[C@@H](CC(N)=O)C(=O)N1CCC[C@H]1C(=O)N[C@@H](CO)C(=O)N2 [QuIA] (H-DECCSNPSCAQTHPEIC-NH2; disulfide 3-9, 4-17)
IC50 [1]: 0.0557 µM | IC50 [2]: 0.0907 µM | IC50 [3]: > 10 µM | blocking of ACh-induced current ([3]; at 10 µM): ^a Values in parentheses are a 95% confidence interval (C.I.). ^b Less than 50% blocking at 10 µM. All receptors are of rat (r) or human (h) origin, except α1β1δε, which is of mouse (m) origin. ND, not determined. | blocking of ACh-induced current [4]: less than 50% | IC50 [5]: > 10 µM | blocking of ACh-induced current ([5]; at 10 µM): ^a Values in parentheses are a 95% confidence interval (C.I.). ^b Less than 50% blocking at 10 µM. All receptors are of rat (r) or human (h) origin, except α1β1δε, which is of mouse (m) origin. ND, not determined. | IC50 [6]: > 10 µM | blocking of ACh-induced current ([6]; at 10 µM): ^a Values in parentheses are a 95% confidence interval (C.I.). ^b Less than 50% blocking at 10 µM. All receptors are of rat (r) or human (h) origin, except α1β1δε, which is of mouse (m) origin. ND, not determined. | IC50 [7]: > 10 µM | blocking of ACh-induced current ([7]; at 10 µM): ^a Values in parentheses are a 95% confidence interval (C.I.). ^b Less than 50% blocking at 10 µM. All receptors are of rat (r) or human (h) origin, except α1β1δε, which is of mouse (m) origin. ND, not determined. | IC50 [8]: > 10 µM | blocking of ACh-induced current ([8]; at 10 µM): ^a Values in parentheses are a 95% confidence interval (C.I.). ^b Less than 50% blocking at 10 µM. All receptors are of rat (r) or human (h) origin, except α1β1δε, which is of mouse (m) origin. ND, not determined.
